Reference: US20250152688A1 (priority 2021, published 2025)
“Also recorded” adds a separate entry of the source. Read-outs that look alike come from different tables or passages of the source.

What was measured:
[1] = test system: T-cell clones derived from patients that responded to UV1 vaccination; type: cell-based, human; conditions: T-cell clones from UV1 responders tested with overlapping 14-mer peptides
[2] = test system: peripheral blood mononuclear cells (PBMCs); type: in vivo, human; conditions: for Patients with immune response against the peptide / UV1 mix: 51 evaluable patients vaccinated with UV1 (NSCLC, prostate cancer, malignant melanoma); for Number of patients that recognised this one peptide only / Responding patients / evaluable patients: patients vaccinated with UV1; for Responding patients / evaluable patients: response against the labelled peptide / mix
[3] = test system: J76 cells transfected with UT1, a TCR specific for SEQ ID NO: 1; type: cell-based, human; conditions: 0.5, 1.5 and 5 μM (conjugates in second experiment 0.5, 1.5 and 3 μM); 24 hours; EBV cells as APC
[4] = test system: B6.129S2-H2-Ab1tm1GruTg(HLADRA/H2-Ea,HLA-DRB1*0401/H2-Eb)1Kito strain mice; type: in vivo; conditions: HLA-DR4 mice
[5] = test system: peripheral blood mononuclear cells (PMBCs); type: cell-based, human; conditions: for Total of positive patients over peptides sharing at least 8 amino acids with the polypeptide: GV1001 (n=4) + DC (n=3) vaccinated patients
[6] = test system: transgenic HLA-A2/HLA-DR1 animals; type: in vivo, mice; conditions: Group 1: MTTE-OVA then CD29 60 μg (4.1 nmol); Group 2: UV34 14 μg (4.1 nmol) in IFA; prime-boost-boost; p=0.0286
[7] = test system: HLA-A2/DR1 transgenic mice; type: in vivo; conditions: for Immunogenicity in HLA-A2/DR1 transgenic mice (conclusion): 16.4 nmol peptide with standard adjuvant; for Peptides above the threshold (T cell responses against individual peptides): 16.4 nmol peptide, female HLA-A2/DR1 mice (n=4), cut off = cells alone; for Peptide recognition by individual vaccinated mice (ELISpot): 16.4 nmol, mice M9-M12 GV1001 group, M13-M16 UV34 group
[8] = test system: C57BL/6 mice; type: in vivo; conditions: 1 nmol SC 3 times, 1 week intervals, blood 9 days post last administration
[9] = test system: vaccinated individuals; conditions: reported in Bernhardt 2006, Inderberg-Suso 2012, Kyte 2011; cited from earlier work
[10] = Vaccination GV1001 + DC (n = 4 + 3)

Substance: ARRPGLLGASVLGL (listed as Homo sapiens) [SEQ ID NO: 22]
- HLA Class II allele, T-cell clone recognising the peptide [1]: DQ7, clone 8,10

Substance: GLLGASVLGLDDIH (listed as Homo sapiens) [SEQ ID NO: 26]
- HLA Class II allele, T-cell clone recognising the peptide [1]: DQ2, clone 52

Substance: LESVLNYERARRPG (LFSVLNYERARRPG; listed as Homo sapiens) [SEQ ID NO: 13]
- HLA Class II allele, T-cell clone recognising the peptide [1]: p5-clone109

Substance: RTFVLRVRAQDPPPE [p725]
- Patients with immune response against the peptide / UV1 mix [2]: 39%
- Number of patients that recognised this one peptide only [2]: one
- Responding patients / evaluable patients [2]: (20/51)

Substance: ALFSVLNYERARRPGLLGASVLGLDDIHRA [p719-20]
- HLA Class II allele, T-cell clone recognising the peptide [1]: All clones
- GFP-expressing T-cells specific for SEQ ID NO: 1 (T-cell activation) [3]: activate the T cells equally well
- Responding mice ([4]; 22 nmol dose): all mice appear to respond
- IFN-γ ELISpot spots on restimulation with SEQ ID NO: 1 ([4]; 30 μg (9 nmol) with CpG 1826 25 μg in IFA, prime boost, n=8): significant increase in the number of spots compared to cells alone
- Patients with immune response against the peptide / UV1 mix [2]: 65%
- Patients with immune response against the peptide / UV1 mix ([2]; listed as SEQ ID NO. 1): 65%
- Percentage of patients carrying the allele who responded to SEQ ID NO. 1 ([2]; HLA-DPB1*01:01): 14%
- Percentage of patients carrying the allele who responded to SEQ ID NO. 1 ([2]; HLA-DPB1*04:01): 64%
- Percentage of patients carrying the allele who responded to SEQ ID NO. 1 ([2]; HLA-DPB1*04:02): 71%
- Percentage of patients carrying the allele who responded to SEQ ID NO. 1 ([2]; HLA-DQB1*03:02): 46%
- Percentage of patients carrying the allele who responded to SEQ ID NO. 1 ([2]; HLA-DQB1*05:01): 67%
- Percentage of patients carrying the allele who responded to SEQ ID NO. 1 ([2]; HLA-DQB1*06:02): 72%
- Percentage of patients carrying the allele who responded to SEQ ID NO. 1 ([2]; HLA-DRB1*04:01): 50%
- Percentage of patients carrying the allele who responded to SEQ ID NO. 1 ([2]; HLA-DRB1*07:01): 90%
- Percentage of patients carrying the allele who responded to SEQ ID NO. 1 ([2]; HLA-DRB1*15:01): 89%
- Responders in 7 of the 9 most common HLA class II haplotypes ([2]; UV1-vaccinated patients): > 50%
- Number of patients that recognised this one peptide only [2]: 13
- Responding patients / evaluable patients [2]: (33/51)

Substance: ALFSVLNYERARRP (listed as Homo sapiens) [SEQ ID NO: 12]
- HLA Class II allele, T-cell clone recognising the peptide [1]: DR12, clone 44, 38, 6

Substance: PGLLGASVLGLDDI (listed as Homo sapiens) [SEQ ID NO: 25]
- HLA Class II allele, T-cell clone recognising the peptide [1]: DQ2, clone 52

Substance: FSVLNYERARRPGL (listed as Homo sapiens) [SEQ ID NO: 14]
- HLA Class II allele, T-cell clone recognising the peptide [1]: p5-clone 109

Substance: FIPKPDGLRPIVNMD [Conjugate 715]
- No. of positive patients [5]: 3
- T-cell responses to the individual peptide (patients), counted for SEQ ID NO: 116 ([5]; Vaccination DC (n = 3)): 2
- T-cell responses to the individual peptide (patients), counted for SEQ ID NO: 116 ([5]; Vaccination GV1001 (n = 4)): 1
- T-cell responses to the individual peptide (patients), counted for SEQ ID NO: 116 [5, 10]: 3

Substance: PQDRLTEVIASIIKP [Conjugate 723]
- No. of positive patients [5]: 1
- T-cell responses to the individual peptide (patients), counted for SEQ ID NO: 118 ([5]; Vaccination DC (n = 3)): 1
- T-cell responses to the individual peptide (patients), counted for SEQ ID NO: 118 [5, 10]: 1

Substance: LYFVKVDVTGAYDTI [Conjugate 727]
- No. of positive patients [5]: 5
- T-cell responses to the individual peptide (patients), counted for SEQ ID NO: 118 ([5]; Vaccination DC (n = 3)): 2
- T-cell responses to the individual peptide (patients), counted for SEQ ID NO: 118 ([5]; Vaccination GV1001 (n = 4)): 3
- T-cell responses to the individual peptide (patients), counted for SEQ ID NO: 118 [5, 10]: 5

Substance: VTGAYDTIPQDRLTE [Conjugate 732]
- No. of positive patients [5]: 1
- T-cell responses to the individual peptide (patients), counted for SEQ ID NO: 118 ([5]; Vaccination GV1001 (n = 4)): 1
- T-cell responses to the individual peptide (patients), counted for SEQ ID NO: 118 [5, 10]: 1

Substance: AERLTSRVKALFSVL [p728]
- Patients with immune response against the peptide / UV1 mix [2]: 24%
- Number of patients that recognised this one peptide only [2]: one
- Responding patients / evaluable patients [2]: (12/51)

Substance: RPALLTSRLRFIPKP [Conjugate 714]
- No. of positive patients [5]: 7
- T-cell responses to the individual peptide (patients), counted for GV1001 ([5]; Vaccination DC (n = 3)): 3
- T-cell responses to the individual peptide (patients), counted for SEQ ID NO: 116 ([5]; Vaccination DC (n = 3)): 3
- T-cell responses to the individual peptide (patients), counted for GV1001 ([5]; Vaccination GV1001 (n = 4)): 4
- T-cell responses to the individual peptide (patients), counted for SEQ ID NO: 116 ([5]; Vaccination GV1001 (n = 4)): 4
- T-cell responses to the individual peptide (patients), counted for GV1001 [5, 10]: 7
- T-cell responses to the individual peptide (patients), counted for SEQ ID NO: 116 [5, 10]: 7

Substance: RARRPGLLGASVLG (listed as Homo sapiens) [SEQ ID NO: 21]
- HLA Class II allele, T-cell clone recognising the peptide [1]: DQ7, clone 8,10

Substance: TSRLRFIPKPDGLRP [Conjugate 730]
- No. of positive patients [5]: 5
- T-cell responses to the individual peptide (patients), counted for GV1001 ([5]; Vaccination DC (n = 3)): 2
- T-cell responses to the individual peptide (patients), counted for SEQ ID NO: 116 ([5]; Vaccination DC (n = 3)): 2
- T-cell responses to the individual peptide (patients), counted for GV1001 ([5]; Vaccination GV1001 (n = 4)): 3
- T-cell responses to the individual peptide (patients), counted for SEQ ID NO: 116 ([5]; Vaccination GV1001 (n = 4)): 3
- T-cell responses to the individual peptide (patients), counted for GV1001 [5, 10]: 5
- T-cell responses to the individual peptide (patients), counted for SEQ ID NO: 116 [5, 10]: 5

Substance: LSEAEVRQHREARPALLTSRLRFIPKPDGL [SEQ ID NO: 116]
- Anti-MTTE antibody titers at the end of the experiment [6]: not able to mount an antibody response to the MTTE sequence
- Immunogenicity in HLA-A2/DR1 transgenic mice (conclusion) [7]: highly immunogenic
- Peptides above the threshold (T cell responses against individual peptides) [7]: UV36, UV57, UV58, UV59, UV60, UV64 and UV66
- Peptide recognition by individual vaccinated mice (ELISpot) [7]: Mouse M16 displayed marginal immune responses against UV57; also recorded: Mouse M15 responded somewhat more broadly and recognized UV58; also recorded: Cells from this mouse also responded to UV59; also recorded: Peptide UV60 was also recognized; also recorded: They both recognized UV36, UV57, UV58, UV64 and UV66; also recorded: also recognized UV59 and UV60
- Total of positive patients over peptides sharing at least 8 amino acids with the polypeptide [5]: Total = 20
- SUM of T-cell responses to peptides embedded in the polypeptide ([5]; Vaccination DC (n = 3)): 8
- SUM of T-cell responses to peptides embedded in the polypeptide ([5]; Vaccination GV1001 (n = 4)): 12
- SUM of T-cell responses to peptides embedded in the polypeptide [5, 10]: 20

Substance: LYFVKVDVTGAYDTIPQDRLTRVIASIIKP (listed as Homo sapiens) [SEQ ID NO: 118]
- Total of positive patients over peptides sharing at least 8 amino acids with the polypeptide [5]: Total = 9
- SUM of T-cell responses to peptides embedded in the polypeptide ([5]; Vaccination DC (n = 3)): 4
- SUM of T-cell responses to peptides embedded in the polypeptide ([5]; Vaccination GV1001 (n = 4)): 5
- SUM of T-cell responses to peptides embedded in the polypeptide [5, 10]: 9

Substance: SVLNYERARRPGLL (listed as Homo sapiens) [SEQ ID NO: 15]
- HLA Class II allele, T-cell clone recognising the peptide [1]: DR7, clone 4, 12, 21, 15, 92,; also recorded: p5-clone109

Substance: LLGASVLGLDDIHR (listed as Homo sapiens) [SEQ ID NO: 27]
- HLA Class II allele, T-cell clone recognising the peptide [1]: DQ2, clone 52

Substance: ERARRPGLLGASVL (listed as Homo sapiens) [SEQ ID NO: 20]
- HLA Class II allele, T-cell clone recognising the peptide [1]: DQ7, clone 8,10

Substance: LNYERARRPGLLGD (LNYERARRPGLLGA; listed as Homo sapiens) [SEQ ID NO: 17]
- HLA Class II allele, T-cell clone recognising the peptide [1]: p5-clone109

Substance: ELYFVKVDVEGAYDT [Conjugate 726]
- No. of positive patients [5]: 2
- T-cell responses to the individual peptide (patients), counted for SEQ ID NO: 118 ([5]; Vaccination DC (n = 3)): 1
- T-cell responses to the individual peptide (patients), counted for SEQ ID NO: 118 ([5]; Vaccination GV1001 (n = 4)): 1
- T-cell responses to the individual peptide (patients), counted for SEQ ID NO: 118 [5, 10]: 2

Substance: EAEVRQHREARPALL [Conjugate 713]
- No. of positive patients [5]: 4
- T-cell responses to the individual peptide (patients), counted for SEQ ID NO: 116 ([5]; Vaccination DC (n = 3)): 1
- T-cell responses to the individual peptide (patients), counted for SEQ ID NO: 116 ([5]; Vaccination GV1001 (n = 4)): 3
- T-cell responses to the individual peptide (patients), counted for SEQ ID NO: 116 [5, 10]: 4

Substance: VLNYERARRPGLIG (VLNYERARRPGLLG; listed as Homo sapiens) [SEQ ID NO: 16]
- HLA Class II allele, T-cell clone recognising the peptide [1]: DR7, clone 15, p5-clone109

Substance: ARWWWMHHNMDLIGGAKxVAAWTLKAu [HY-PADRE]
- Anti-MTTE IgG1 antibody titres (ELISA) [8]: no antibodies to the MTTE sequence

Substance: YERARRPGLLGASV (listed as Homo sapiens) [SEQ ID NO: 19]
- HLA Class II allele, T-cell clone recognising the peptide [1]: DQ7, clone 8

Substance: NYERARRPGLLGAS (listed as Homo sapiens) [SEQ ID NO: 18]
- HLA Class II allele, T-cell clone recognising the peptide [1]: p5-clone 109; also recorded: DQ7, clone 8

Substance: RRPGLLGASVLGLD (listed as Homo sapiens) [SEQ ID NO: 23]
- HLA Class II allele, T-cell clone recognising the peptide [1]: DQ7, clone 8,10

Substance: EARPALLTSRLRFIPK [GV1001, reference compound]
- Immunogenicity in HLA-A2/DR1 transgenic mice (conclusion) [7]: marginal immune responses
- Peptides above the threshold (T cell responses against individual peptides) [7]: UV 57
- Peptide recognition by individual vaccinated mice (ELISpot) [7]: M9 and 12 did not respond to any of the tested peptides; also recorded: M11 demonstrated a marginal immune response against UV57
- Vaccinated individuals with induced immune responses [9]: at least 50%
- SUM of T-cell responses to peptides embedded in the polypeptide ([5]; Vaccination DC (n = 3)): 5
- SUM of T-cell responses to peptides embedded in the polypeptide ([5]; Vaccination GV1001 (n = 4)): 7
- SUM of T-cell responses to peptides embedded in the polypeptide [5, 10]: 12

Substance: LKRVQLRELSEAEVRQ [Conjugate 731]
- No. of positive patients [5]: 1
- T-cell responses to the individual peptide (patients), counted for SEQ ID NO: 116 ([5]; Vaccination GV1001 (n = 4)): 1
- T-cell responses to the individual peptide (patients), counted for SEQ ID NO: 116 [5, 10]: 1
